In brackets after ≈: the same amount, converted by molar mass. Several values for one entry are separate records, joined by “and”; a condition that tells them apart may be missing. Identical values can stand only once. Like-named read-outs stand apart in the source and are kept apart here.
Key:
HEK293 = HEK293 cell IC50; assay type: cell-based; details: Homo sapiens
MM.1S cells = assay: MM.1S cell survival, MTT assay; assay type: cell-based; details: Homo sapiens, MM1.S, 72 h, 72 hours compound exposure
BRD4 [1] = molecular target: T1, BRD4 (Homo sapiens, UniProt O60885); assay: Differential Scanning Fluorimetry (DSF), stability of BRD4 upon ligand binding; details: for ΔTm at 4 µM / DSF ΔTm (° C.): 100 μM protein, 4 μM compound and 2% DMSO; for IC50: estimated
Method: (§1) DSF=Differential Scanning Fluorimetry; provides a measure of the increased stability of BRD4 upon ligand binding The DSF experiment was run at 100 μM protein, 4 μM compound and 2% DMSO.

JAK2 = molecular target: T2, JAK2 (Homo sapiens, UniProt O60674); assay: JAK2 IC50 (RB, commercial kinase panel); assay type: biochemical
T2 construct: purchased

SAOS-2 = SAOS-2 cell IC50; assay type: cell-based; details: Homo sapiens
UKE-1 = UKE-1 cell IC50; assay type: cell-based; details: UKE1
MV4-11 AML cells = assay: MV-4-11 cell IC50 (antiproliferative activity); assay type: cell-based; details: Homo sapiens
Method: Cellular activity of promising compounds is assessed using MM.1S and MV4-11 AML cells using c-Myc levels as biomarker (6-12 hr treatment) and antiproliferative activity (48-72 hr treatment) as described (Ciceri et al., Dual kinase-bromodomain inhibitors for rationally designed polypharmacology. Nat Chem Biol 2014).

BRDT-1 = molecular target: T3, BRDT-1 (Homo sapiens, UniProt Q58F21); assay: BRDT-1 IC50; assay type: binding
T3 construct: BRDT-1; purchased

BRD4-1 = molecular target: T4, BRD4-1 (Homo sapiens, UniProt O60885); assay: BRD4-1 IC50; assay type: binding
T4 construct: BRD4-1; purchased

NCI-H2052 = NCI-H2052 cell IC50; assay type: cell-based; details: Homo sapiens
[2] = Precipitation in DSF buffer; assay type: physicochemical
Method: as §1

c-Myc in MM.1S cells = details: literature; cited from earlier work
Solubility in PBS buffer = assay type: physicochemical
BRDT = molecular target: T5, BRDT (Homo sapiens, UniProt Q58F21); assay: BRDT IC50 (RB, commercial BRD panel); assay type: binding
T5 construct: purchased

BRD3 = molecular target: T6, BRD3 (Homo sapiens, UniProt Q15059); assay: BRD3 IC50 (RB, commercial BRD panel); assay type: binding
T6 construct: purchased

BRD2 = molecular target: T7, BRD2 (Homo sapiens, UniProt P25440); assay: BRD2 IC50 (RB, commercial BRD panel); assay type: binding
T7 construct: purchased

FLT3 = molecular target: T8, FLT3 (Homo sapiens, UniProt P36888); assay: FLT3 IC50 (RB, commercial kinase panel); assay type: biochemical
T8 construct: purchased
T8 sequence (P36888 27-993): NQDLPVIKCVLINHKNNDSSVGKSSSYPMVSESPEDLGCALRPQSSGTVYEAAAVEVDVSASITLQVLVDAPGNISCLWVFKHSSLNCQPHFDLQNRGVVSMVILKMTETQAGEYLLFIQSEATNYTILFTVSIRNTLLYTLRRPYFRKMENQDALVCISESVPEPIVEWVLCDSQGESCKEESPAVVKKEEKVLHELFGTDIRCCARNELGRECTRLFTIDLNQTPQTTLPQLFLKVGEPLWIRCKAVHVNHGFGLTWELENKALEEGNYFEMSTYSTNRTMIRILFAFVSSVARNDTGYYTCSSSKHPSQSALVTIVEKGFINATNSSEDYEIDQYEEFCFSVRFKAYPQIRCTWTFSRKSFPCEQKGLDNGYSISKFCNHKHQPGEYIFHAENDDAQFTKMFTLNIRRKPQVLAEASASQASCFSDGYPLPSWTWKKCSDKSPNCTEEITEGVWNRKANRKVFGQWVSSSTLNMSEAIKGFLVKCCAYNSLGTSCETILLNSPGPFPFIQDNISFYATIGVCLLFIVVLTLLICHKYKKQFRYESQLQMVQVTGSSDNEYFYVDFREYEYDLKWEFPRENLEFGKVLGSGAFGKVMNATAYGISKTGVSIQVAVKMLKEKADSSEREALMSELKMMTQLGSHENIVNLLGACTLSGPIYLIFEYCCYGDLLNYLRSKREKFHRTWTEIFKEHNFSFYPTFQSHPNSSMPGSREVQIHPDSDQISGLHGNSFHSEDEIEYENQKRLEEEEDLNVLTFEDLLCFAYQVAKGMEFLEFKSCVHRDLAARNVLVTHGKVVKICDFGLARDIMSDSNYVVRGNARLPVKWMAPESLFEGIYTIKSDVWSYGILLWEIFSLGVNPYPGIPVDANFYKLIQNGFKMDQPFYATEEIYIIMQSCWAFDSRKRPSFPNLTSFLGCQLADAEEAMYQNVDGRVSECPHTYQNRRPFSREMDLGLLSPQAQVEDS

BRD4 [3] = molecular target: T1, BRD4; assay: BRD4 IC50 (RB, commercial BRD panel); assay type: binding; details: read-out: BRD4 IC50

T2 sequence (O60674 whole entry): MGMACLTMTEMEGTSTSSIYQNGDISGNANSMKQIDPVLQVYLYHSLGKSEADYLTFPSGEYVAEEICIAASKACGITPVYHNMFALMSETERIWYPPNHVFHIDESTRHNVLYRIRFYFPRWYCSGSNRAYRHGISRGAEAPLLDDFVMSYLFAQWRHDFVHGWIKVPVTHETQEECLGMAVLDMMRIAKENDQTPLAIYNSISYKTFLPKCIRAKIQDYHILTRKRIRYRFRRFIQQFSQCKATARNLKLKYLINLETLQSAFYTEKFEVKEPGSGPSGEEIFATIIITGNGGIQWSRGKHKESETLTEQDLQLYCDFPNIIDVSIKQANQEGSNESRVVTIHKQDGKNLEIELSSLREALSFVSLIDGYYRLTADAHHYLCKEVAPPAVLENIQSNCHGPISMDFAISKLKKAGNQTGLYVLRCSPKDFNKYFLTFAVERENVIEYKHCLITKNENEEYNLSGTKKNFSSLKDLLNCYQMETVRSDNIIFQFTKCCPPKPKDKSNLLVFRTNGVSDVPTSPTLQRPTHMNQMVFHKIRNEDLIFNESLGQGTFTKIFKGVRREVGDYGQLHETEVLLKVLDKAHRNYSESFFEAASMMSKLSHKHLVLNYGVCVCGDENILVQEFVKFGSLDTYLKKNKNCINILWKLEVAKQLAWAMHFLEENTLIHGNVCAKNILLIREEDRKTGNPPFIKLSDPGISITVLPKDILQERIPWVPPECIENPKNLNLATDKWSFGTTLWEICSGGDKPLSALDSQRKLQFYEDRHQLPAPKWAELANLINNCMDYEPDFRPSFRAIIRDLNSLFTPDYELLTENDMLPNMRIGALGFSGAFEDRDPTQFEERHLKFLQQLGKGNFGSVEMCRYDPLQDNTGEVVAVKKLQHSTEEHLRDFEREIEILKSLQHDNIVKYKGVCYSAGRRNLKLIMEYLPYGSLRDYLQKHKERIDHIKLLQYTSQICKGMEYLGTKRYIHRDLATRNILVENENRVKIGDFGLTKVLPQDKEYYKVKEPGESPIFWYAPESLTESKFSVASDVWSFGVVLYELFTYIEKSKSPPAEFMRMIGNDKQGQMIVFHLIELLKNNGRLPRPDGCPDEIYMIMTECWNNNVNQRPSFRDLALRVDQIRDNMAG
T7 sequence (P25440 whole entry): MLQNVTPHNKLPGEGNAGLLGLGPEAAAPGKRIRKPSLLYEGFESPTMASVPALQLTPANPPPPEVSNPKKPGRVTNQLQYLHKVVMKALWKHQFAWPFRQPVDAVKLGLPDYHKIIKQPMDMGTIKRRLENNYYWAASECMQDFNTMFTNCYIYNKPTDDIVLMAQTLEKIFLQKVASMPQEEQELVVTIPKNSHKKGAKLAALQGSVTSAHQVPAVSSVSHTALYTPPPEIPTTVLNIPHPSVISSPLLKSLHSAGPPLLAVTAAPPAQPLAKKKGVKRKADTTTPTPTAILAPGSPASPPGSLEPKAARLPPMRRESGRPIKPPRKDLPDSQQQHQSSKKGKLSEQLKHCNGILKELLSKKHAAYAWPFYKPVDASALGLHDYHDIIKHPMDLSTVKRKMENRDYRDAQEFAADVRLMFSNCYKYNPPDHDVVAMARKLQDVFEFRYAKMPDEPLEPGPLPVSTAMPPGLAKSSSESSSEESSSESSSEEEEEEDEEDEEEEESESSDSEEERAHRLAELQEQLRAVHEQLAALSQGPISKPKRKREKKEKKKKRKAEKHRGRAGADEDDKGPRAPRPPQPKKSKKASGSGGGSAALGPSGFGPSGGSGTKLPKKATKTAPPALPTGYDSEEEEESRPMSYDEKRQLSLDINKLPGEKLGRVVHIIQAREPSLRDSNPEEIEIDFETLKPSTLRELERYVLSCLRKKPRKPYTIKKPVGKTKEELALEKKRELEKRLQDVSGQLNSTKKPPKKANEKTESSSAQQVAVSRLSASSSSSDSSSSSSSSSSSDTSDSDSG
T6 sequence (Q15059 whole entry): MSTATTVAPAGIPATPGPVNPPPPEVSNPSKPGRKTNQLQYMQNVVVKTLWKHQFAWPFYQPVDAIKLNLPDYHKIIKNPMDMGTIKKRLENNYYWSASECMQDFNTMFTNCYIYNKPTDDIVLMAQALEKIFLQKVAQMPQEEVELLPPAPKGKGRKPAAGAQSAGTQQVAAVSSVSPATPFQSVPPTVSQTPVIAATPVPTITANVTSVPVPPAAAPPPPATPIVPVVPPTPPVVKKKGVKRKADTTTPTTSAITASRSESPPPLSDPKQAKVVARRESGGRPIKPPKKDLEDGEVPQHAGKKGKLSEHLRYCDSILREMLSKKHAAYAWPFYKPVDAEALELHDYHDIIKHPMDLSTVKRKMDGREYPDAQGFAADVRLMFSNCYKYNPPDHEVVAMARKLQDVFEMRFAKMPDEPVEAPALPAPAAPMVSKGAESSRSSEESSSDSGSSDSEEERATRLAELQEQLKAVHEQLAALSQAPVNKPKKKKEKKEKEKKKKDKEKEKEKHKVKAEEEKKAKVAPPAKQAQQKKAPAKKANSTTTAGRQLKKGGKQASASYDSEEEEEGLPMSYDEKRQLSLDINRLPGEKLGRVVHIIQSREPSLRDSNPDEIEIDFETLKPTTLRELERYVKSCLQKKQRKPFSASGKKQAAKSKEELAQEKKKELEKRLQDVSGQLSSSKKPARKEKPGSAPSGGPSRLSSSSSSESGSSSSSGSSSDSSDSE

| Compound | IC50 (HEK293) [nM] | IC50 (MM.1S cells) [nM] | ΔTm at 4 µM (BRD4 [1]) [°C] | IC50 (BRD4 [1]) | other results |
| --- | --- | --- | --- | --- | --- |
| COc1cc(Nc2nc(Nc3ccc(N4CCN(C)CC4)cc3)ncc2Cl)ccc1Cl | 1400 | 450 | 4.8 ± 0.058 | 540 nM | – |
| Cc1nc(Nc2ccc(N3CCN(C)CC3)cc2)nc(Nc2cccc(S(=O)(=O)NC(C)(C)C)c2)c1C | 120000 | – | 5.3 ± 0.064 | 370 nM | – |
| Cc1cnc(Nc2ccc(N3CCN(C)CC3)cc2)nc1Nc1cccc(NS(=O)(=O)C2CC2)c1 | 1000 | 600 | 6.7 ± 0.11 | 130 nM | – |
| COc1cc(Nc2nc(Nc3ccc(N4CCN(C)CC4)cc3)nc(C)c2C)ccc1Cl | 840 | – | 4.1 ± 0.14 | 930 nM | IC50 (JAK2): 14000 nM |
| COc1cc(Nc2nc(Nc3ccc(N4CCN(C)CC4)cc3)nc(C)c2C)cc(OC)c1OC | 1400 | 5600 | 5.9 ± 0.14 | 230 nM | – |
| COc1cc(Nc2nc(Nc3ccc(N4CCN(C)CC4)cc3)ncc2Cl)cc(OC)c1OC | 2000 | – | 5.2 ± 0.02 | 400 nM | – |
| COc1cccc(Nc2nc(Nc3ccc(N4CCN(C)CC4)cc3)ncc2Cl)c1 | – | – | 1.68 ± 0.078 | 5960 nM | – |
| CCOc1cccc(Nc2nc(Nc3ccc(N4CCN(C)CC4)cc3)ncc2Cl)c1 | – | – | 4.3 ± 0.12 | 790 nM | – |
| COc1ccc(Nc2nc(Nc3ccc(N4CCN(C)CC4)cc3)ncc2C)cc1OC | – | – | 5.6 ± 0.059 | 290 nM | – |
| Cc1cnc(Nc2ccc(N3CCN(C)CC3)cc2)nc1Nc1cccc(S(=O)(=O)NC2CC2)c1 | 1200 | 1200 | 7.3 ± 0.099 | 79 nM | – |
| CN1CCN(c2ccc(Nc3ncc(Cl)c(Nc4cccc(NS(=O)(=O)C5CC5)c4)n3)cc2)CC1 | 3600 | – | 6.9 ± 0.15 | 110 nM | – |
| CN1CCN(c2ccc(Nc3ncc(Cl)c(Nc4cccc(S(=O)(=O)NC5CC5)c4)n3)cc2)CC1 | 1800 | 880 | 6.4 ± 0.15 | 160 nM | – |
| COc1cc(Nc2nc(Nc3ccc(N4CCN(C)CC4)cc3)ncc2C)cc(OC)c1OC | 970 | – | 6.9 ± 0.1 | 110 nM | – |
| COc1cc(Nc2nc(Nc3ccc(N4CCN(C)CC4)cc3)ncc2C)cc(OC)c1Cl | – | 1100 | 7.6 ± 0.15 | 63 nM | – |
| CN1CCN(c2ccc(Nc3ncc(Cl)c(Nc4cccc(S(=O)(=O)NC(C)(C)CO)c4)n3)cc2)CC1 | 1500 | – | 6.1 ± 0.15 | 200 nM | – |
| Cc1cnc(Nc2ccc(N3CCN(C)CC3)cc2)nc1Nc1cccc(S(=O)(=O)NC(C)(C)CO)c1 | 3600 | – | 6.5 ± 0.18 | 150 nM | – |
| Cc1nc(Nc2ccc(N3CCN(C)CC3)cc2)nc(Nc2cccc(S(=O)(=O)NC(C)(C)CO)c2)c1C | 4300 | – | 5.5 ± 0.17 | 320 nM | – |

| Compound | IC50 (HEK293) [nM] | IC50 (MM.1S cells) [nM] | ΔTm at 4 µM (BRD4 [1]) [°C] | IC50 (BRD4 [1]) | other results |
| --- | --- | --- | --- | --- | --- |
| COc1cc(Nc2nc(Nc3ccc(N4CCN(C)CC4)cc3)nc3ccccc23)ccc1Cl | 1700 | – | 4.9 ± 0.13 | 500 nM | – |
| CN1CCN(c2ccc(Nc3nc4c(c(Nc5cccc(NS(=O)(=O)C(C)(C)C)c5)n3)CCCC4)cc2)CC1 | – | 1700 | 6.9 ± 0.038 | 110 nM | IC50 (SAOS-2): 2500 nM |
| Cc1cnc(Nc2ccc(C3CCN(C)CC3)cc2)nc1Nc1ccc(Cl)c(NS(=O)(=O)C(C)(C)C)c1 | – | – | 10 ± 0.11 | 7.4 nM and 9.9 nM | IC50 (UKE-1): 470 nM; IC50 (MV4-11 AML cells): 98 nM; DSF ΔTm (° C.) (BRD4 [1]): 10 ± 0.11 10 ± 0.11 °C |
| Cc1cnc(Nc2ccc(C(=O)NC3CCN(C)CC3)cc2)nc1Nc1ccc(Cl)c(NS(=O)(=O)C(C)(C)C)c1 | – | – | 11 ± 0.12 | 6.1 nM and 4.6 nM | IC50 (UKE-1): 1600 nM; IC50 (MV4-11 AML cells): 71 nM; DSF ΔTm (° C.) (BRD4 [1]): 11 ± 0.12 11 ± 0.12 °C |
| Cc1cnc(Nc2ccc(C(=O)NC3CCN(C)CC3)c(F)c2)nc1Nc1ccc(Cl)c(NS(=O)(=O)C(C)(C)C)c1 | – | – | 12.5 ± 0.165 | 1.3 nM | IC50 (UKE-1): 220 nM; IC50 (MV4-11 AML cells): 38 nM; IC50 (BRDT-1): 23 nM; IC50 (BRD4-1): 10 nM; IC50 (NCI-H2052): > 10000 nM |
| CN1CCC(NC(=O)c2ccc(Nc3ncc(F)c(Nc4ccc(Cl)c(NS(=O)(=O)C(C)(C)C)c4)n3)cc2F)CC1 | – | 120 | 9.91 ± 0.039 | 40.5 nM | – |
| CN1CCN(c2ccc(Nc3ncc(F)c(Nc4ccc(Cl)c(NS(=O)(=O)C(C)(C)C)c4)n3)cc2F)CC1 | – | 160 | 0.57 ± 0.124 | 16800 nM | Precipitation in DSF buffer [2]: Precipitation observed in DSF buffer |
| CN1CCC(NC(=O)c2ccc(Nc3ncc(Cl)c(Nc4ccc(Cl)c(NS(=O)(=O)C(C)(C)C)c4)n3)cc2F)CC1 | – | 90 | 12 ± 0.5 | 10.5 nM | – |
| CN1CCN(c2ccc(Nc3ncc(Cl)c(Nc4ccc(Cl)c(NS(=O)(=O)C(C)(C)C)c4)n3)cc2F)CC1 | – | 110 | 5.22 ± 0.065 | 835 nM | Precipitation in DSF buffer [2]: Precipitation observed in DSF buffer |
| Cc1cnc(Nc2ccc(N3CCN(C)CC3)c(C(F)(F)F)c2)nc1Nc1ccc(Cl)c(NS(=O)(=O)C(C)(C)C)c1 | – | – | 2.46 ± 0.111 | 4950 nM | Precipitation in DSF buffer [2]: Precipitation interferes with the assay |
| CC[C@@H]1C(=O)N(C)c2cnc(Nc3ccc(C(=O)NC4CCN(C)CC4)cc3OC)nc2N1C1CCCC1 [BI2536] | – | – | – | – | downregulation of c-Myc (c-Myc in MM.1S cells): strong downregulation of c-Myc |
| Cc1cnc(Nc2ccc(N3CCN(C)CC3)cc2)nc1Nc1ccc(Cl)c(NS(=O)(=O)C(C)(C)C)c1 [SG3-014B2.MSA] | – | – | – | – | Solubility (Solubility in PBS buffer; PBS buffer (15% HPCD)): Solubility > 14.4 mg mg in 1 mL; Solubility (Solubility in PBS buffer; PBS buffer (~9.3% DMSO)): DMSO) = 0.416 mg mg in 1 mL; Solubility (Solubility in PBS buffer; aqueous with cosolvent or surfactant or cyclodextrin, PBS buffer (~9.3% DMSO), read-out: Solubility): 650 µM (≈ 354 µg/mL) |
| Cc1cnc(Nc2ccc(N3CCN(C)CC3)cc2)nc1Nc1cccc(S(=O)(=O)NC(C)(C)C)c1 [TG101209] | – | – | – | – | downregulation of c-Myc (c-Myc in MM.1S cells): strong downregulation of c-Myc |
| Cc1cnc(Nc2ccc(OCCN3CCCC3)cc2)nc1Nc1cccc(S(=O)(=O)NC(C)(C)C)c1 [TG101348] | – | – | – | – | downregulation of c-Myc (c-Myc in MM.1S cells): strong downregulation of c-Myc |
| Cc1cnc(Nc2ccc(N3CCN(C)CC3)cc2)nc1Nc1cccc(S(=O)(=O)NC(C)(C)C)c1 [drawing 27] | – | – | 6.83 ± 0.129 | – | IC50 (SAOS-2): 425 nM; DSF ΔTm (° C.) (BRD4 [1]): 7.55 ± 0.154 °C |
| Cc1cnc(Nc2ccc(N3CCN(C)CC3)cc2)nc1Nc1ccc(Cl)c(NS(=O)(=O)C(C)(C)C)c1 [drawing 109] | – | 74 | 9.57 ± 0.086 | 10 nM | IC50 (BRDT): 27.8 nM; IC50 (UKE-1): 512 nM; IC50 (BRD3): 16.5 nM; IC50 (MV4-11 AML cells): 186 nM; IC50 (BRD2): 81.4 nM; IC50 (FLT3): 9.71 nM; IC50 (JAK2): 11.2 nM; IC50 (BRD4 [3]): 4.04 nM; IC50 (SAOS-2): 567 nM |
